Experimental findings from US12398097B2, “WDR5-MYC inhibitors” (Vanderbilt University, priority 2019, dated 2025) are described below.

The assay deals with WDR5 (Homo sapiens, UniProt P61964). Kind of assay: Competition-based fluorescence polarization anisotropy assay. The following applies: binding to WDR5; displacement of FITC-labeled small molecule probe (analogous to Example J2 or HCH-25) or peptide probe FITC-AHx-SEEEIDVVSV; pH 6.0; Ki converted from IC50. The method, then: Compounds of the present invention were assessed for their ability to bind to WDr5 using a competition-based fluorescence polarization anisotropy assay, similar to the method previously described. […] Fluorescence polarization measurements were performed in 384-well plates (Greiner Bio One) using a Cytation 3 plate reader (BioTek). Fluorescein isothiocyanate (FITC)-labeled peptide probe ([…]) was purchased from GenScript USA Inc and used without further purification. […] The assay buffer contained 200 mM phosphate, 300 mM NaCl, and 0.5 mM TCEP and 0.1% Chaps at pH 6.0. […] This was converted into a binding dissociation constant (Ki value) according to the formula: […] Data shown in the table below represents a K; determined from this method for each Example, using either a fluorescently labeled small molecule probe analogous to Example J2 or Example HCH-25, or the peptide probe described above, in the assay.
`COCCNC(=O)c1cc(Cl)cc(NS(=O)(=O)c2cc(Br)ccc2O)c1O` [Example J15, 3-((5-Bromo-2-hydroxyphenyl)sulfonamido)-5-chloro-2-hydroxy-N-(2-methoxyethyl)benzamide] came in with a Ki of 610 nM.

Consider `O=C(NCCO)c1cc(Cl)cc(NS(=O)(=O)c2cc(Br)ccc2O)c1O` [Example J16, 3-((5-Bromo-2-hydroxyphenyl)sulfonamido)-5-chloro-2-hydroxy-N-(2-hydroxyethyl)benzamide], for which the Ki was 540 nM. The Ki values of the last two molecules are within 1.5-fold of each other. Then `O=C(NCCCO)c1cc(Cl)cc(NS(=O)(=O)c2cc(Br)ccc2O)c1O` [Example J17, 3-((5-Bromo-2-hydroxyphenyl)sulfonamido)-5-chloro-2-hydroxy-N-(3-hydroxypropyl)benzamide], with 2690 nM; and `O=C(NC1CCOC1)c1cc(Cl)cc(NS(=O)(=O)c2cc(Br)ccc2O)c1O` (centres unmarked) [Example J18, 3-((5-Bromo-2-hydroxyphenyl)sulfonamido)-5-chloro-2-hydroxy-N-(tetrahydrofuran-3-yl)benzamide], with 1350 nM.

Molecule `O=C(NCCN1CCOCC1)c1cc(Cl)cc(NS(=O)(=O)c2cc(Br)ccc2O)c1O` [Example J19, 3-((5-Bromo-2-hydroxyphenyl)sulfonamido)-5-chloro-2-hydroxy-N-(2-morpholinoethyl)benzamide] gave a Ki of 1180 nM. The figure for `O=C(NC1COC1)c1cc(Cl)cc(NS(=O)(=O)c2cc(Br)ccc2O)c1O` [Example J21, 3-((5-Bromo-2-hydroxyphenyl)sulfonamido)-5-chloro-2-hydroxy-N-(oxetan-3-yl)benzamide] is 580 nM; for `O=C(N[C@H]1CCOC1)c1cc(Cl)cc(NS(=O)(=O)c2cc(Br)ccc2O)c1O` [Example J22, (S)-3-((5-Bromo-2-hydroxyphenyl)sulfonamido)-5-chloro-2-hydroxy-N-(tetrahydrofuran-3-yl)benzamide] it is 470 nM. `O=C(NCC1CCOC1)c1cc(Cl)cc(NS(=O)(=O)c2cc(Br)ccc2O)c1O` (centres unmarked) [Example J23, 3-((5-Bromo-2-hydroxyphenyl)sulfonamido)-5-chloro-2-hydroxy-N-((tetrahydrofuran-3-yl)methyl)benzamide] had an inhibition constant (Ki) of 490 nM. `COC1CCN(C(=O)c2cc(Cl)cc(NS(=O)(=O)c3cc(Br)ccc3O)c2O)C1` (centres unmarked) [Example J24, 5-Bromo-N-(5-chloro-2-hydroxy-3-(3-methoxypyrrolidine-1-carbonyl)phenyl)-2-hydroxybenzenesulfonamide] showed a Ki of 5440 nM. Molecule `O=C(NCC1CCCO1)c1cc(Cl)cc(NS(=O)(=O)c2cc(Br)ccc2O)c1O` (centres unmarked) [Example J25, 3-((5-Bromo-2-hydroxyphenyl)sulfonamido)-5-chloro-2-hydroxy-N-((tetrahydrofuran-2-yl)methyl)benzamide] came in with a Ki of 230 nM. Take `O=C(NC[C@H]1CCCO1)c1cc(Cl)cc(NS(=O)(=O)c2cc(Br)ccc2O)c1O` [Example J26, (R)-3-((5-Bromo-2-hydroxyphenyl)sulfonamido)-5-chloro-2-hydroxy-N-((tetrahydrofuran-2-yl)methyl)benzamide]: affinity was put at a Ki of 740 nM. In turn, `O=C(NC[C@@H]1CCCO1)c1cc(Cl)cc(NS(=O)(=O)c2cc(Br)ccc2O)c1O` [Example J27, (S)-3-((5-Bromo-2-hydroxyphenyl)sulfonamido)-5-chloro-2-hydroxy-N-((tetrahydrofuran-2-yl)methyl)benzamide] displayed a Ki of 780 nM. In turn, `COC[C@H]1CCCN1C(=O)c1cc(Cl)cc(NS(=O)(=O)c2cc(Br)ccc2O)c1O` [Example J28, (R)-5-Bromo-N-(5-chloro-2-hydroxy-3-(2-(methoxymethyl)pyrrolidine-1-carbonyl)phenyl)-2-hydroxybenzenesulfonamide] yielded an inhibition constant Ki of 8290 nM. Then `COC[C@@H]1CCCN1C(=O)c1cc(Cl)cc(NS(=O)(=O)c2cc(Br)ccc2O)c1O` [Example J29, (S)-5-Bromo-N-(5-chloro-2-hydroxy-3-(2-(methoxymethyl)pyrrolidine-1-carbonyl)phenyl)-2-hydroxybenzenesulfonamide], with 4000 nM; and `O=C(c1cc(Cl)cc(NS(=O)(=O)c2cc(Br)ccc2O)c1O)N1CCOCC1` [Example J30, 5-Bromo-N-(5-chloro-2-hydroxy-3-(morpholine-4-carbonyl)phenyl)-2-hydroxybenzenesulfonamide], with 2360 nM. Molecule `O=C(NCc1ccccn1)c1cc(Cl)cc(NS(=O)(=O)c2cc(Br)ccc2O)c1O` [Example J31, 3-((5-Bromo-2-hydroxyphenyl)sulfonamido)-5-chloro-2-hydroxy-N-(pyridin-2-ylmethyl)benzamide] showed a Ki of 790 nM.

For the molecule `O=C(NCc1ccco1)c1cc(Cl)cc(NS(=O)(=O)c2cc(Br)ccc2O)c1O` [Example J34, 3-((5-Bromo-2-hydroxyphenyl)sulfonamido)-5-chloro-N-(furan-2-ylmethyl)-2-hydroxybenzamide], the Ki was found to be 320 nM. `O=C(NCc1ccc(=O)[nH]c1)c1cc(Cl)cc(NS(=O)(=O)c2cc(Br)ccc2O)c1O` [Example J35, 3-((5-Bromo-2-hydroxyphenyl)sulfonamido)-5-chloro-2-hydroxy-N-((6-oxo-1,6-dihydropyridin-3-yl)methyl)benzamide] showed a Ki of 230 nM. As for `O=C(NCc1cc[nH]c(=O)c1)c1cc(Cl)cc(NS(=O)(=O)c2cc(Br)ccc2O)c1O` [Example J36, 3-((5-Bromo-2-hydroxyphenyl)sulfonamido)-5-chloro-2-hydroxy-N-((2-oxo-1,2-dihydropyridin-4-yl)methyl)benzamide], the Ki came out at 240 nM.

Molecule `CN(CC1CCCO1)C(=O)c1cc(Cl)cc(NS(=O)(=O)c2cc(Br)ccc2O)c1O` (centres unmarked) [Example J37, 3-((5-Bromo-2-hydroxyphenyl)sulfonamido)-5-chloro-2-hydroxy-N-methyl-N-((tetrahydrofuran-2-yl)methyl)benzamide] came in with a Ki of 3780 nM. Then `O=C(NC1CC(F)(F)C1)c1cc(Cl)cc(NS(=O)(=O)c2cc(Br)ccc2O)c1O` [Example J38, 3-((5-Bromo-2-hydroxyphenyl)sulfonamido)-5-chloro-N-(3,3-difluorocyclobutyl)-2-hydroxybenzamide], with 400 nM; and `O=C(NCC(F)F)c1cc(Cl)cc(NS(=O)(=O)c2cc(Br)ccc2O)c1O` [Example J39, 3-((5-Bromo-2-hydroxyphenyl)sulfonamido)-5-chloro-N-(2,2-difluoroethyl)-2-hydroxybenzamide], with 790 nM; and `CNC(=O)c1cc(Cl)cc(NS(=O)(=O)c2cc(Br)cc(Cl)c2O)c1O` [Example J40, 3-((5-Bromo-3-chloro-2-hydroxyphenyl)sulfonamido)-5-chloro-2-hydroxy-N-methylbenzamide], with 240 nM. Then `O=C(NCCO)c1cc(Cl)cc(NS(=O)(=O)c2cc(Br)cc(Cl)c2O)c1O` [Example J41, 3-((5-Bromo-3-chloro-2-hydroxyphenyl)sulfonamido)-5-chloro-2-hydroxy-N-(2-hydroxyethyl)benzamide], with 2480 nM; and `COCCNC(=O)c1cc(Cl)cc(NS(=O)(=O)c2cc(Br)cc(Cl)c2O)c1O` [Example J42, 3-((5-Bromo-3-chloro-2-hydroxyphenyl)sulfonamido)-5-chloro-2-hydroxy-N-(2-methoxyethyl)benzamide], with 300 nM. As for `COc1ccc(Br)cc1S(=O)(=O)Nc1cc(Cl)cc(C(N)=O)c1O` [Example J43, 3-((5-Bromo-2-methoxyphenyl)sulfonamido)-5-chloro-2-hydroxybenzamide], the Ki was found to be 1150 nM.

For orientation: Ki means a measure of affinity in units of concentration, obtained from inhibition or displacement. Low values mean higher affinity, high ones lower affinity.
